The values that follow come from ChEMBL document CHEMBL5365531, “Structure-Activity Relationship Studies of SARS-CoV-2 Main Protease Inhibitors Containing 4-Fluorobenzothiazole-2-carbonyl Moieties” (J Med Chem, 2023).

Data set [1] relates to SARS-CoV-2. The data set can be described thus: Antiviral activity against SARS-CoV-2 hCoV-19/Japan/TKYS02037/2022 (omicron BA.2) infected in Vero E6 cells preincubated with cells for 1 day followed by viral infection and measured after 3 days by qRT-PCR analysis. It counts as functional, organism-based. Conditions: Severe acute respiratory syndrome coronavirus 2, hCoV-19/Japan/TKYS02037/2022 (omicron BA.2), Vero C1008.

Data set [2] concerns SARS-CoV-2. As to the kind of experiment: Antiviral activity against SARS-CoV-2 infected in Vero E6 cells preincubated with cells for 1 day followed by viral infection and measured after 3 days by qRT-PCR analysis. It counts as functional, organism-based. Conditions: Severe acute respiratory syndrome coronavirus 2, Vero C1008. Background: In qPCR the cycle at which signal appears reflects the starting amount.

The nature of data set [3]: Cytotoxicity against African green monkey Vero E6 cells incubated for 3 days by WST-8 assay. It counts as toxicity, cell-based, Vero C1008. Conditions: chlorocebus sabaeus, time 3 day. Background: Formazan colour is commonly taken as a measure of viable cells.
Data set [4] has as its system SARS-CoV-2. The data set can be described thus: Antiviral activity against SARS-CoV-2 infected in Vero E6 cells preincubated with cells for 1 day in absence of HCl followed by viral infection and measured after 3 days by qRT-PCR analysis. It counts as functional, organism-based. Conditions: Severe acute respiratory syndrome coronavirus 2, Vero C1008.
Data set [5] has as its system SARS-CoV-2. The data set can be described thus: Antiviral activity against SARS-CoV-2 infected in Vero E6 cells preincubated with cells for 1 day in presence of HCl treated compound followed by viral infection and measured after 3 days by qRT-PCR analysis. It counts as functional, organism-based. As to conditions: Severe acute respiratory syndrome coronavirus 2, Vero C1008.

Another data set relates to PBMC. The data set can be described thus: Cytotoxicity against human PBMC cells assessed as reduction in cell viability at 10 uM incubated for 12 days by CCK-8 assay. It counts as toxicity, cell-based. Conditions: 288 h, time 12 day.
A further data set concerns MOLT-4. The data set can be described thus: Cytotoxicity against human MOLT-4 cells assessed as reduction in cell viability at 10 uM incubated for 12 days by CCK-8 assay. It counts as toxicity, cell-based. As to conditions: molt-4, 288 h, time 12 day.
A further data set has as its system MT2. As to the kind of experiment: Cytotoxicity against human MT2 cells assessed as reduction in cell viability at 10 uM incubated for 12 days by CCK-8 assay. It counts as toxicity, cell-based. Conditions: mt2, 288 h, time 12 day.
Data set [6] is described as follows: Mutagenicity in Salmonella typhimurium TA100 assessed as inhibition of bacterial growth at 0.152 to 333 ug incubated in presence of S9 fraction by micro-Ames test. It counts as toxicity, subcellular, Salmonella enterica subsp. enterica serovar Typhimurium. Conditions: dose 0.152-333 µg. On the technique in general: The Ames test uses bacterial strains that need an amino acid and regain growth without it when mutated back.

Data set [7] in a line: Mutagenicity in Salmonella typhimurium TA1535 assessed as inhibition of bacterial growth at 0.152 to 333 ug incubated in presence of S9 fraction by micro-Ames test. It counts as toxicity, subcellular, Salmonella enterica subsp. enterica serovar Typhimurium. Conditions: dose 0.152-333 µg.
Data set [8] is described as follows: Mutagenicity in Salmonella typhimurium TA98 assessed as inhibition of bacterial growth at 0.152 to 333 ug incubated in presence of S9 fraction by micro-Ames test. It counts as toxicity, subcellular, Salmonella enterica subsp. enterica serovar Typhimurium. As to conditions: dose 0.152-333 µg.
Data set [9] in a line: Mutagenicity in Salmonella typhimurium TA1537 assessed as inhibition of bacterial growth at 0.152 to 333 ug incubated in presence of S9 fraction by micro-Ames test. It counts as toxicity, subcellular, Salmonella enterica subsp. enterica serovar Typhimurium. As to conditions: dose 0.152-333 µg.
The nature of data set [10]: Mutagenicity in Escherichia coli WP2uvrA assessed as inhibition of bacterial growth at 0.152 to 333 ug incubated in presence of S9 fraction by micro-Ames test. It counts as toxicity, subcellular. As to conditions: dose 0.152-333 µg.
Data set [11] is described as follows: Mutagenicity in Salmonella typhimurium TA100 assessed as inhibition of bacterial growth at 0.152 to 333 ug incubated in absence of S9 fraction by micro-Ames test. Conditions: in vivo; dose 0.152-333 µg. It counts as toxicity, Salmonella enterica subsp. enterica serovar Typhimurium.
The nature of data set [12]: Mutagenicity in Salmonella typhimurium TA1535 assessed as inhibition of bacterial growth at 0.152 to 333 ug incubated in absence of S9 fraction by micro-Ames test. As to conditions: in vivo; dose 0.152-333 µg. It counts as toxicity, Salmonella enterica subsp. enterica serovar Typhimurium.
Data set [13] can be described thus: Mutagenicity in Salmonella typhimurium TA98 assessed as inhibition of bacterial growth at 0.152 to 333 ug incubated in absence of S9 fraction by micro-Ames test. It counts as toxicity, Salmonella enterica subsp. enterica serovar Typhimurium. As to conditions: in vivo; dose 0.152-333 µg.
Data set [14] in a line: Mutagenicity in Salmonella typhimurium TA1537 assessed as inhibition of bacterial growth at 0.152 to 333 ug incubated in absence of S9 fraction by micro-Ames test. It counts as toxicity, Salmonella enterica subsp. enterica serovar Typhimurium. As to conditions: in vivo; dose 0.152-333 µg.
A short description of data set [15]: Mutagenicity in Escherichia coli WP2uvrA assessed as inhibition of bacterial growth at 0.152 to 333 ug incubated in absence of S9 fraction by micro-Ames test. Conditions: in vivo; dose 0.152-333 µg. It counts as toxicity.
Another data set deals with Vero C1008. As to the kind of experiment: Cytotoxicity against African green monkey Vero E6 cells infected with SARS-CoV-2 WK-521 upto 100 uM incubated for 3 days by immunostaining analysis. Conditions: chlorocebus sabaeus, vero c1008, 72 h, time 3 day. It counts as toxicity, cell-based.

A word on the EC50: it is the concentration needed to bring the measured effect to its halfway point. For orientation: CC50 means the concentration that lowers cell viability or growth by half.

Bounds are passed on as bounds.

`CC(C)(C)[C@H](NC(=O)C(F)(F)F)C(=O)N1C[C@H]2[C@@H]([C@H]1C(=O)N[C@H](C#N)C[C@@H]1CCNC1=O)C2(C)C`: the EC50 with SARS-CoV-2 [1] came to 1400 nM; with SARS-CoV-2 [2], 1600 nM; in the data set with SARS-CoV-2 [4], 1400 nM; with SARS-CoV-2 [5] it was 2500 nM. Besides, the CC50 at 72 h in data set [3] is > 100000 nM. For the same compound, the Activity result (with PBMC; with MOLT-4; in the data set with MT2; in [6]; in [7]; in data set [8]) was “Non-Toxic” each time. For the same compound, the Activity result in data set [9], in data set [10], in [11], in [12], in [13] and in [14] was “Non-Toxic” each time. The Activity entry (in data set [15]; in the data set with Vero C1008) was “Non-Toxic” in each case.
